Results as given in ChEMBL document CHEMBL1671859, “bla(IMP-4) in different genetic contexts in Enterobacteriaceae isolates from Australia” (2008).
Values after ≈ are worked out from the molar mass of the structure shown.

Legend:
Assay type in all cases: functional
[1] = tested on: Klebsiella pneumoniae; assay: Antibacterial activity against Klebsiella pneumoniae isolate Kp1945 harboring IncL/M plasmid and blaIMP-4-qacG2-aacA4-catB3 and dfrA12-orfF-aadA2 arrays by Etest method
[2] = tested on: Enterobacter cloacae; assay: Antibacterial activity against Enterobacter cloacae El1573 transconjugant harboring IncL/M plasmid and blaIMP-4-qacG2-aacA4-catB3 array by Etest method
[3] = tested on: Morganella morganii; assay: Antibacterial activity against Morganella morganii isolate Mm1614 harboring IncL/M plasmid and blaIMP-4-qacG2-aacA4-catB3 array by Etest method
[4] = tested on: Klebsiella oxytoca; assay: Antibacterial activity against Klebsiella oxytoca isolate Ko238 harboring IncA/C plasmid and blaIMP-4-qacG2-aacA4-catB3 array by Etest method
[5] = tested on: Serratia marcescens; assay: Antibacterial activity against Serratia marcescens isolate Sm2723 harboring IncL/M plasmid and blaIMP-4-qacG2-aacA4-catB3 array by Etest method
[6] = tested on: Citrobacter koseri; assay: Antibacterial activity against Citrobacter koseri Ck211 transconjugant harboring IncA/C plasmid and blaIMP-4-qacG2-aacA4-catB3 array by Etest method
[7] = tested on: Citrobacter amalonaticus; assay: Antibacterial activity against Citrobacter amalonaticus isolate Ca3927 harboring IncL/M plasmid and blaIMP-4-qacG2-aacA4-catB3 array by Etest method
[8] = tested on: Escherichia coli; assay: Antibacterial activity against Escherichia coli Ec9381 transconjugant harboring IncL/M plasmid and blaIMP-4-qacG2-aacA4-catB3 array by Etest method
[9] = tested on: Klebsiella pneumoniae; assay: Antibacterial activity against Klebsiella pneumoniae isolate Kp149 harboring IncA/C plasmid and blaIMP-4-qacG2-aacA4-catB3 array by Etest method
[10] = tested on: Citrobacter amalonaticus; assay: Antibacterial activity against Citrobacter amalonaticus Ca3927 transconjugant harboring IncL/M plasmid and blaIMP-4-qacG2-aacA4-catB3 array by Etest method
[11] = tested on: Enterobacter cloacae; assay: Antibacterial activity against Enterobacter cloacae isolate El3518 harboring IncL/M plasmid and blaIMP-4-qacG2-aacA4-catB3 array by Etest method
[12] = tested on: Serratia marcescens; assay: Antibacterial activity against Serratia marcescens isolate Sm203 harboring IncA/C plasmid and blaIMP-4-qacG2-aacA4-catB3 array by Etest method
[13] = tested on: Klebsiella oxytoca; assay: Antibacterial activity against Klebsiella oxytoca Ko238 transconjugant harboring IncA/C plasmid and blaIMP-4-qacG2-aacA4-catB3 array by Etest method
[14] = tested on: Klebsiella pneumoniae; assay: Antibacterial activity against Klebsiella pneumoniae isolate Kp211 harboring IncA/C plasmid and blaIMP-4-qacG2-aacA4-catB3 array by Etest method
[15] = tested on: Serratia marcescens; assay: Antibacterial activity against Serratia marcescens Sm265 transconjugant harboring IncA/C plasmid and blaIMP-4-qacG2-aacA4-catB3 array by Etest method
[16] = tested on: Enterobacter cloacae; assay: Antibacterial activity against Enterobacter cloacae isolate El3280 harboring IncL/M plasmid and blaIMP-4-qacG2-aacA4-catB3 array by Etest method
[17] = tested on: Morganella morganii; assay: Antibacterial activity against Morganella morganii isolate Mm38009 harboring IncL/M plasmid and blaIMP-4-qacG2-aacA4-catB3 array by Etest method
[18] = tested on: Klebsiella pneumoniae; assay: Antibacterial activity against Klebsiella pneumoniae isolate Kp38009 harboring IncL/M plasmid and blaIMP-4-qacG2-aacA4-catB3 array by Etest method
[19] = tested on: Klebsiella pneumoniae; assay: Antibacterial activity against Klebsiella pneumoniae Kp7564 transconjugant harboring IncL/M plasmid and blaIMP-4-qacG2-aacA4-catB3 array by Etest method
[20] = tested on: Klebsiella pneumoniae; assay: Antibacterial activity against Klebsiella pneumoniae isolate Kp1239 harboring IncL/M plasmid and blaIMP-4-qacG2-aacA4-catB3 array by Etest method
[21] = tested on: Serratia marcescens; assay: Antibacterial activity against Serratia marcescens Sm2723 transconjugant harboring IncL/M plasmid and blaIMP-4-qacG2-aacA4-catB3 array by Etest method
[22] = tested on: Citrobacter freundii; assay: Antibacterial activity against Citrobacter freundii isolate Cf1614 harboring IncL/M plasmid and blaIMP-4-qacG2-aacA4-catB3 array by Etest method
[23] = tested on: Morganella morganii; assay: Antibacterial activity against Morganella morganii Mm38009 transconjugant harboring IncL/M plasmid and blaIMP-4-qacG2-aacA4-catB3 array by Etest method
[24] = tested on: Citrobacter youngae; assay: Antibacterial activity against Citrobacter youngae isolate CyB38 harboring blaIMP-4-qacG2-aacA4-catB3 array by Etest method
[25] = tested on: Enterobacter cloacae; assay: Antibacterial activity against Enterobacter cloacae El3799 transconjugant harboring IncL/M plasmid and blaIMP-4-qacG2-aacA4-catB3 array by Etest method
[26] = tested on: Klebsiella oxytoca; assay: Antibacterial activity against Klebsiella oxytoca isolate Ko1156 harboring IncL/M plasmid and blaIMP-4-qacG2-aacA4-catB3 array by Etest method
[27] = tested on: Enterobacter cloacae; assay: Antibacterial activity against Enterobacter cloacae isolate El3799 harboring IncL/M plasmid and blaIMP-4-qacG2-aacA4-catB3 array by Etest method
[28] = tested on: Klebsiella pneumoniae; assay: Antibacterial activity against Klebsiella pneumoniae Kp3799 transconjugant harboring IncL/M plasmid and blaIMP-4-qacG2-aacA4-catB3 array by Etest method
[29] = tested on: Klebsiella pneumoniae; assay: Antibacterial activity against Klebsiella pneumoniae isolate Kp204 harboring IncA/C plasmid and blaIMP-4-qacG2-aacA4-catB3 array by Etest method
[30] = tested on: Klebsiella pneumoniae; assay: Antibacterial activity against Klebsiella pneumoniae Kp38009 transconjugant harboring IncL/M plasmid and blaIMP-4-qacG2-aacA4-catB3 array by Etest method
[31] = tested on: Klebsiella pneumoniae; assay: Antibacterial activity against Klebsiella pneumoniae isolate Kp266 harboring IncA/C plasmid and blaIMP-4-qacG2-aacA4-catB3 array by Etest method
[32] = tested on: Escherichia coli; assay: Antibacterial activity against Escherichia coli isolate Ec221 harboring IncA/C plasmid and blaIMP-4-qacG2-aacA4-catB3 array by Etest method
[33] = tested on: Klebsiella pneumoniae; assay: Antibacterial activity against Klebsiella pneumoniae Kp149 transconjugant harboring IncA/C plasmid and blaIMP-4-qacG2-aacA4-catB3 array by Etest method
[34] = tested on: Klebsiella pneumoniae; assay: Antibacterial activity against Klebsiella pneumoniae isolate Kp4614
[35] = tested on: Klebsiella oxytoca; assay: Antibacterial activity against Klebsiella oxytoca isolate Ko0426 harboring IncL/M plasmid and blaIMP-4-qacG2-aacA4-catB3 array by Etest method
[36] = tested on: Citrobacter amalonaticus; assay: Antibacterial activity against Citrobacter amalonaticus Ca38009 transconjugant harboring IncL/M plasmid and blaIMP-4-qacG2-aacA4-catB3 array by Etest method
[37] = tested on: Klebsiella pneumoniae; assay: Antibacterial activity against Klebsiella pneumoniae Kp2730 transconjugant harboring IncL/M plasmid and blaIMP-4-qacG2-aacA4-catB3 and dfrA12-orfF-aadA2 arrays by Etest method
[38] = tested on: Klebsiella pneumoniae; assay: Antibacterial activity against Klebsiella pneumoniae isolate Kp7564 harboring IncL/M plasmid and blaIMP-4-qacG2-aacA4-catB3 array by Etest method
[39] = tested on: Klebsiella oxytoca; assay: Antibacterial activity against Klebsiella oxytoca Ko1156 transconjugant harboring IncL/M plasmid and blaIMP-4-qacG2-aacA4-catB3 array by Etest method
[40] = tested on: Serratia marcescens; assay: Antibacterial activity against Serratia marcescens isolate Sm201 harboring IncA/C plasmid and blaIMP-4-qacG2-aacA4-catB3 array by Etest method
[41] = tested on: Acinetobacter; assay: Antibacterial activity against Acinetobacter isolate A74510 harboring blaIMP-4-qacG2-aacA4-catB3 array by Etest method
[42] = tested on: Serratia marcescens; assay: Antibacterial activity against Serratia marcescens isolate Sm211 harboring IncA/C plasmid and blaIMP-4-qacG2-aacA4-catB3 array by Etest method

CO/N=C(\C(=O)N[C@@H]1C(=O)N2C(C(=O)O)=C(COC(C)=O)CS[C@H]12)c1csc(N)n1 [CEFOTAXIME]
MIC [1]: > 32 µg/mL
MIC [2]: 16 µg/mL (≈ 35.1 µM)
MIC [3]: 32 µg/mL (≈ 70.3 µM)
MIC [4]: > 32 µg/mL
MIC [5]: > 32 µg/mL
MIC [6]: > 2 µg/mL
MIC [7]: > 32 µg/mL
MIC [8]: 32 µg/mL (≈ 70.3 µM)
MIC [9]: > 32 µg/mL
MIC [10]: 32 µg/mL (≈ 70.3 µM)
MIC [11]: > 32 µg/mL
MIC [12]: > 32 µg/mL
MIC [13]: 32 µg/mL (≈ 70.3 µM)
MIC [14]: > 32 µg/mL
MIC [15]: > 32 µg/mL
MIC [16]: > 32 µg/mL
MIC [17]: 32 µg/mL (≈ 70.3 µM)
MIC [18]: > 32 µg/mL
MIC [19]: 32 µg/mL (≈ 70.3 µM)
MIC [20]: > 32 µg/mL
MIC [21]: 16 µg/mL (≈ 35.1 µM)
MIC [22]: > 32 µg/mL
MIC [23]: 32 µg/mL (≈ 70.3 µM)
MIC [24]: > 32 µg/mL
MIC [25]: 32 µg/mL (≈ 70.3 µM)
MIC [26]: 32 µg/mL (≈ 70.3 µM)
MIC [27]: > 32 µg/mL
MIC [28]: 32 µg/mL (≈ 70.3 µM)
MIC [29]: > 32 µg/mL
MIC [30]: 32 µg/mL (≈ 70.3 µM)
MIC [31]: > 32 µg/mL
MIC [32]: > 32 µg/mL
MIC [33]: > 32 µg/mL
MIC [34]: > 32 µg/mL
MIC [35]: 32 µg/mL (≈ 70.3 µM)
MIC [36]: 16 µg/mL (≈ 35.1 µM)
MIC [37]: 32 µg/mL (≈ 70.3 µM)
MIC [38]: 32 µg/mL (≈ 70.3 µM)
MIC [39]: 16 µg/mL (≈ 35.1 µM)
MIC [40]: > 32 µg/mL
MIC [41]: > 32 µg/mL
MIC [42]: > 32 µg/mL

C[C@@H](O)[C@H]1C(=O)N2C(C(=O)O)=C(SCCNC=N)C[C@H]12 [IMIPENEM ANHYDROUS]
MIC [1]: 8 µg/mL (≈ 26.7 µM)
MIC [2]: 2 µg/mL (≈ 6.68 µM)
MIC [3]: 8 µg/mL (≈ 26.7 µM)
MIC [4]: 8 µg/mL (≈ 26.7 µM)
MIC [5]: 1.5 µg/mL (≈ 5.01 µM)
MIC [6]: ≤ 1 µg/mL
MIC [7]: 2 µg/mL (≈ 6.68 µM)
MIC [8]: ≤ 1 µg/mL
MIC [9]: 8 µg/mL (≈ 26.7 µM)
MIC [10]: ≤ 1 µg/mL
MIC [11]: 3 µg/mL (≈ 10 µM)
MIC [12]: 4 µg/mL (≈ 13.4 µM)
MIC [13]: 2 µg/mL (≈ 6.68 µM)
MIC [14]: 2 µg/mL (≈ 6.68 µM)
MIC [15]: 2 µg/mL (≈ 6.68 µM)
MIC [16]: 3 µg/mL (≈ 10 µM)
MIC [17]: 3 µg/mL (≈ 10 µM)
MIC [18]: 0.5 µg/mL (≈ 1.67 µM)
MIC [19]: 2 µg/mL (≈ 6.68 µM)
MIC [20]: > 32 µg/mL
MIC [21]: 2 µg/mL (≈ 6.68 µM)
MIC [22]: 4 µg/mL (≈ 13.4 µM)
MIC [23]: 2 µg/mL (≈ 6.68 µM)
MIC [24]: 8 µg/mL (≈ 26.7 µM)
MIC [25]: ≤ 1 µg/mL
MIC [26]: 0.75 µg/mL (≈ 2.51 µM)
MIC [27]: 1 µg/mL (≈ 3.34 µM)
MIC [28]: 2 µg/mL (≈ 6.68 µM)
MIC [29]: 8 µg/mL (≈ 26.7 µM)
MIC [30]: ≤ 1 µg/mL
MIC [31]: 8 µg/mL (≈ 26.7 µM)
MIC [32]: 8 µg/mL (≈ 26.7 µM)
MIC [33]: 4 µg/mL (≈ 13.4 µM)
MIC [34]: ≤ 1 µg/mL
MIC [35]: 4 µg/mL (≈ 13.4 µM)
MIC [36]: 2 µg/mL (≈ 6.68 µM)
MIC [37]: 2 µg/mL (≈ 6.68 µM)
MIC [38]: 7 µg/mL (≈ 23.4 µM)
MIC [39]: ≤ 1 µg/mL
MIC [40]: 8 µg/mL (≈ 26.7 µM)
MIC [41]: > 8 µg/mL
MIC [42]: 4 µg/mL (≈ 13.4 µM)

NC[C@H]1O[C@H](O[C@H]2[C@H](O)[C@@H](O[C@H]3O[C@H](CO)[C@@H](O)[C@H](N)[C@H]3O)[C@H](N)C[C@@H]2N)[C@H](N)C[C@@H]1O [TOBRAMYCIN]
MIC [1]: > 8 µg/mL
MIC [2]: 8 µg/mL (≈ 17.1 µM)
MIC [3]: > 8 µg/mL
MIC [4]: 8 µg/mL (≈ 17.1 µM)
MIC [5]: > 8 µg/mL
MIC [6]: 8 µg/mL (≈ 17.1 µM)
MIC [7]: > 8 µg/mL
MIC [8]: 8 µg/mL (≈ 17.1 µM)
MIC [9]: > 8 µg/mL
MIC [10]: 8 µg/mL (≈ 17.1 µM)
MIC [11]: > 8 µg/mL
MIC [12]: > 8 µg/mL
MIC [13]: 8 µg/mL (≈ 17.1 µM)
MIC [14]: 8 µg/mL (≈ 17.1 µM)
MIC [15]: 8 µg/mL (≈ 17.1 µM)
MIC [16]: > 8 µg/mL
MIC [17]: 4 µg/mL (≈ 8.56 µM)
MIC [18]: 8 µg/mL (≈ 17.1 µM)
MIC [19]: 8 µg/mL (≈ 17.1 µM)
MIC [20]: 8 µg/mL (≈ 17.1 µM)
MIC [21]: 8 µg/mL (≈ 17.1 µM)
MIC [22]: > 8 µg/mL
MIC [23]: 8 µg/mL (≈ 17.1 µM)
MIC [24]: > 8 µg/mL
MIC [25]: 8 µg/mL (≈ 17.1 µM)
MIC [26]: > 8 µg/mL
MIC [27]: > 8 µg/mL
MIC [28]: 8 µg/mL (≈ 17.1 µM)
MIC [29]: 8 µg/mL (≈ 17.1 µM)
MIC [30]: 8 µg/mL (≈ 17.1 µM)
MIC [31]: > 8 µg/mL
MIC [32]: 8 µg/mL (≈ 17.1 µM)
MIC [33]: 8 µg/mL (≈ 17.1 µM)
MIC [34]: 8 µg/mL (≈ 17.1 µM)
MIC [35]: > 8 µg/mL
MIC [36]: 8 µg/mL (≈ 17.1 µM)
MIC [37]: 8 µg/mL (≈ 17.1 µM)
MIC [38]: 8 µg/mL (≈ 17.1 µM)
MIC [39]: 8 µg/mL (≈ 17.1 µM)
MIC [40]: > 8 µg/mL
MIC [41]: > 8 µg/mL
MIC [42]: > 8 µg/mL
